According to ChEMBL document CHEMBL1134342, “Current and novel approaches to the drug treatment of schizophrenia” (J Med Chem, 2001):
The source made the active and inactive calls. No cut-off for these calls is given here.

Key:
[1] = target: 5-hydroxytryptamine receptor 2A (Homo sapiens, UniProt P28223)
Description: Binding affinity for human 5-hydroxytryptamine 2A receptor

[2] = Binding affinity at sodium channels
[3] = Plasma half life period was determined in human; type: ADME, organism-based
[4] = Half life period was determined in rat; type: ADME, organism-based; details: in vivo
[5] = Bioavailability in rat; type: ADME, organism-based; details: in vivo
D(4) dopamine receptor = target: T1, D(4) dopamine receptor (Homo sapiens, UniProt P21917)
T1 sequence (P21917 whole entry): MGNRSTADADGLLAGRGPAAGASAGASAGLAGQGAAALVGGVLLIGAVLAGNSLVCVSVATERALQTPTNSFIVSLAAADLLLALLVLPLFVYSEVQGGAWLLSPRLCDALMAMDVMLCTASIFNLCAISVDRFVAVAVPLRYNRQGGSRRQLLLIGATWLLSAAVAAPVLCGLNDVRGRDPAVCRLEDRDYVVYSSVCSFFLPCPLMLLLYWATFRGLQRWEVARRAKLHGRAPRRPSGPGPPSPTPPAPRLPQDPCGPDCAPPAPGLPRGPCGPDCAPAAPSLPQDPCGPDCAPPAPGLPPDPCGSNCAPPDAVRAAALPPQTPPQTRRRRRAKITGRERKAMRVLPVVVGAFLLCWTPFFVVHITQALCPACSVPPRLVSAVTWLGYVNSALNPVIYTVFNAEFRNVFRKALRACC

[6] = Oral bioavailability was determined in rats and rhesus monkey; type: ADME, organism-based; details: eutheria, in vivo
[7] = Brain/Plasma AUC ratio was determined after oral administration of 50 mg/kg; type: ADME, organism-based; design: dose 50 mg/kg, route oral; details: brain and plasma
Mus musculus [8] = experiment: Antagonizing amphetamine induced hyperlocomotion in mice was determined after (ip) administration; type: functional
Mus musculus [9] = experiment: Antagonizing amphetamine induced hyperlocomotion in mice was determined after […] administration; type: functional
[10] = Cmax was determined in rat after oral administration of 3 mg/kg; type: ADME, organism-based; design: dose 3 mg/kg, route oral; details: in vivo
Rodentia sp. [11] = experiment: Antipsychotic potential by blockade of apomorphine disruption in PPI after (sc) administration; type: functional; details: read-out: MED
Rodentia sp. [12] = tested on: Rodentia sp.
Rodentia sp. [13] = tested on: Rodentia sp.; remark: listed apart in the source
Rodentia sp. [14] = tested on: Rodentia sp.; remark: listed apart in the source
Rodentia sp. [15] = tested on: Rodentia sp.; remark: listed apart in the source
Rodentia sp. [16] = tested on: Rodentia sp.; remark: listed apart in the source
Rodentia sp. [17] = experiment: Extrapyramidal liability by induction of catalepsy after oral administration of […] umol/kg; not effective; type: functional, organism-based
Rodentia sp. [18] = experiment: Motor impairment by impaired spontaneous locomotor activity after oral administration of […] umol/kg; not effective; type: functional, organism-based
Rodentia sp. [19] = experiment: EPS liability measured by blockade of stereotypy after oral administration of […] umol/kg; not effective; type: functional, organism-based
Rodentia sp. [20] = experiment: Antipsychotic potential by blockade of apomorphine or amphetamine hyperactivity after oral administration; type: functional
Rattus norvegicus [21] = experiment: Block of mescaline induced head twitch in rat at 1 hour after peroral administration of compound; type: functional; details: po
Rattus norvegicus [22] = experiment: Block of mescaline induced head twitch in rat at 6 hour after peroral administration of compound; type: functional; details: po
[23] = target: T2, 5-hydroxytryptamine receptor 1A (Homo sapiens, UniProt P08908); experiment: Binding affinity towards human 5-hydroxytryptamine 1 receptor
T2 sequence (P08908 whole entry): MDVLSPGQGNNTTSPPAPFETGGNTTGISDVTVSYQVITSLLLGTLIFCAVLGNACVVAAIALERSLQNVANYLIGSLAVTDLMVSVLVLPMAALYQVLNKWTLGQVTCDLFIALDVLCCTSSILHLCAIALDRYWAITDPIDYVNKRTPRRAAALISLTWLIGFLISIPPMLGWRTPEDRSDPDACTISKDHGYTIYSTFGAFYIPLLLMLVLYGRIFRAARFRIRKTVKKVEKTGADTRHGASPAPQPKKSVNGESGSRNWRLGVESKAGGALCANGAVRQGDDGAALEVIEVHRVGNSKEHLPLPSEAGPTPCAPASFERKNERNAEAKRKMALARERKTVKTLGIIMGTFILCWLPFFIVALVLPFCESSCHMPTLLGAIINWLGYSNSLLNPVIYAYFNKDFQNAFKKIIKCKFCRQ

[24] = target: T3, Muscarinic acetylcholine receptor M1 (Homo sapiens, UniProt P11229)
T3 sequence (P11229 whole entry): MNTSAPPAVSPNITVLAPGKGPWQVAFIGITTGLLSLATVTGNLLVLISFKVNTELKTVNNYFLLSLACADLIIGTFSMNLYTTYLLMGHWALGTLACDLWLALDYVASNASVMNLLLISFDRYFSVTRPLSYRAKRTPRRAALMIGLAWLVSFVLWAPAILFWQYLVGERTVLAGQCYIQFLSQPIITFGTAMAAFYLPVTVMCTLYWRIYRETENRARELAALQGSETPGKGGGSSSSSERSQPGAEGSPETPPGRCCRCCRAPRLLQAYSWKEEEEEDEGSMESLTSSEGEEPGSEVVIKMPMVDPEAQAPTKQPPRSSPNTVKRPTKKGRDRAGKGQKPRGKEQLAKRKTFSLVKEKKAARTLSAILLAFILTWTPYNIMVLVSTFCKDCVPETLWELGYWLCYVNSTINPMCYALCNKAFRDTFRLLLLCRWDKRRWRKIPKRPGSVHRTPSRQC
Description: Binding affinity towards human M1 receptor.

[25] = target: T4, Adrenergic receptor alpha-1 (Homo sapiens, UniProt P35348+P25100+P35368)
T4 sequence (P35348 whole entry): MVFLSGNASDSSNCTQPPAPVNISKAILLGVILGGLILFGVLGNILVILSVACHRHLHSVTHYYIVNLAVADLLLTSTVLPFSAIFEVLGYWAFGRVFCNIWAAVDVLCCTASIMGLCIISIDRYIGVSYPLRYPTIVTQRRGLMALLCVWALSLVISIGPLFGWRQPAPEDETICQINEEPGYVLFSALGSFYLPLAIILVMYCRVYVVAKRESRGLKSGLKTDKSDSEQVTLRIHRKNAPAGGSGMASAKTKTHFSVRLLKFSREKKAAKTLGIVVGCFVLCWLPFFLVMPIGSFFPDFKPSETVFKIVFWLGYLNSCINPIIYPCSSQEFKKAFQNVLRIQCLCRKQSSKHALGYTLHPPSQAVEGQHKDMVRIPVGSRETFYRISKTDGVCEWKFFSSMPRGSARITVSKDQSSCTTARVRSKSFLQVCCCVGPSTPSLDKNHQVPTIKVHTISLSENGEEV
T4 sequence (P25100 whole entry): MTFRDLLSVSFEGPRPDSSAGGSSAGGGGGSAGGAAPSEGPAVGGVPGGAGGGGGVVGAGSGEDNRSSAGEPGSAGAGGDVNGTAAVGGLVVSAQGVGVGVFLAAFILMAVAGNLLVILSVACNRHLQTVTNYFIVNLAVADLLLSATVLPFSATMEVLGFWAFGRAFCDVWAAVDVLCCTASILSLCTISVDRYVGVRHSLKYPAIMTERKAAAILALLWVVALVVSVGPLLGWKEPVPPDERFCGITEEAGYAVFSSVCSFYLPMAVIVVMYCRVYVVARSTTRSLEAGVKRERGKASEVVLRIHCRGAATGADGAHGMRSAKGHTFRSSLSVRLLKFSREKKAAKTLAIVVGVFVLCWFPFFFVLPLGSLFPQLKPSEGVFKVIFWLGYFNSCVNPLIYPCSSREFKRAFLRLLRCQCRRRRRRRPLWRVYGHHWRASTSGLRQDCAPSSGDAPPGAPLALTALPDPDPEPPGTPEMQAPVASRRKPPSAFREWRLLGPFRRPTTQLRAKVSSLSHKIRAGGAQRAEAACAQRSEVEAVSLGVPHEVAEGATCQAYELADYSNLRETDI
T4 sequence (P35368 whole entry): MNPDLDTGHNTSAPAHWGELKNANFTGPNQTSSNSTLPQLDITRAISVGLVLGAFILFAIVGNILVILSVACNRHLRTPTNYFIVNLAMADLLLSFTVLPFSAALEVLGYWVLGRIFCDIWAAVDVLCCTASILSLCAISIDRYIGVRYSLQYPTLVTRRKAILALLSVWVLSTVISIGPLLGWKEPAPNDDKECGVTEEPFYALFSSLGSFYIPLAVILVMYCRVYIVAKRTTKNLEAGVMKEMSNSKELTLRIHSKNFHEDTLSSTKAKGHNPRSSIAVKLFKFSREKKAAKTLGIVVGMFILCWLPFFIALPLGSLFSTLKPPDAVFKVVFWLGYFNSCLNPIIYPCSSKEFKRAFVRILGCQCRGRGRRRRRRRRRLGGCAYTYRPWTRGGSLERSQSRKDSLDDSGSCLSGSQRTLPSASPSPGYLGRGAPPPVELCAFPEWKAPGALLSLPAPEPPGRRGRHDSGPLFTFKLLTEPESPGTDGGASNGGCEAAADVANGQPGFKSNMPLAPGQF
Description: Binding affinity towards human alpha-1 adrenergic receptor

Rodentia sp. [26] = experiment: Extrapyramidal liability by induction of catalepsy after a (sc) administration 80 umol/kg; not effective; type: functional, organism-based
Rodentia sp. [27] = experiment: Antipsychotic potential by inhibition of conditioned avoidance responding after a (sc) administration 40 umol/kg; not effective; type: functional, organism-based
Rodentia sp. [28] = experiment: Induction of catalepsy was determined after a (sc) administration; type: functional
Rodentia sp. [29] = experiment: Motor impairment by impaired rotarod performance after a (sc) administration; type: functional
Rodentia sp. [30] = experiment: Motor impairment by impaired spontaneous locomotor activity after a (sc) administration; type: functional
Rodentia sp. [31] = experiment: Antipsychotic potential by blockade of apomorphine or amphetamine hyperactivity after a (sc) administration; type: functional
[32] = target: Voltage-gated L-type calcium channel (Homo sapiens, UniProt O60840+Q01668+Q13698+Q13936); experiment: Percent inhibition of binding to calcium channel at 10 uM; type: protein assay
[33] = Percent inhibition of binding affinity for sodium channel at 10 uM

Chain of 5-hydroxytryptamine receptor 2A (P28223 whole entry): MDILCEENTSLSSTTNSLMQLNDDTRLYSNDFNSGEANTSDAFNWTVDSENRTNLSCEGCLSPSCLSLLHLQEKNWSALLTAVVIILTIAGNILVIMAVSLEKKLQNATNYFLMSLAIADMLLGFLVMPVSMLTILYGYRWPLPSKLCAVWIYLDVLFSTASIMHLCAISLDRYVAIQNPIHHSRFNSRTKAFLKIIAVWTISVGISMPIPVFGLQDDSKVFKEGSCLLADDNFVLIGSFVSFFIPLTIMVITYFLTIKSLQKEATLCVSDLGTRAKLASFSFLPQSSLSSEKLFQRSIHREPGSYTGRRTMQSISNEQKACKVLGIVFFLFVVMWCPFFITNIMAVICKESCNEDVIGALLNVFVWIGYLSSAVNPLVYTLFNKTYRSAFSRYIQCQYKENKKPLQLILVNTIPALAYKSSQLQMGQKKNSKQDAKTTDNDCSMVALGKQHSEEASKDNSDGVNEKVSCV

Work on O=C(c1ccc(F)cc1)C1CCN(CCCCc2ccccc2)CC1 yielded a Ki [1] of 5.3 nM.
Compound OC(c1ccccc1)C1CCN(CCc2ccccc2)CC1 (configuration not stated) [GLEMANSERIN] has a Ki [1] of 2.5 nM.
c1ccc(N2CCN(Cc3c[nH]c4ccccc34)CC2)cc1 gave an IC50 [2] greater than 10000 nM.
O=C(c1ccccc1)C1CCN(CCc2ccccc2)CC1 gave a Ki [1] of 9.6 nM.
COc1cccc([C@H](O)C2CCN(CCc3ccc(F)cc3)CC2)c1OC [VOLINANSERIN] showed a half-life [3] of 6.6 h.
Cc1c(-c2ccccc2)[nH]c(=O)n1C1CCN(Cc2cccc(C#N)c2)CC1 gave a half-life [4] of 1.1 h and a bioavailability [5] of 69%.
With O=C(c1ccc(F)cc1)C1CCN(CCn2c(=O)[nH]c3ccccc3c2=O)CC1 [KETANSERIN] the Ki (D(4) dopamine receptor) was 3.5 nM.
In the case of COc1cccc([C@H](O)C2CCN(CCc3ccc(F)cc3)CC2)c1O, the bioavailability [6] is reported as less than 3%, the Kp [7] is reported as less than 0.13 and the ED50 (Mus musculus [8]) is reported as 0.08 mg/kg. It also gave an ED50 (Mus musculus [9]) of 0.62 mg/kg.
Work on c1ccc(N2CCN(Cc3c[nH]c4ncccc34)CC2)cc1 yielded a Cmax [10] of 18 ng/mL and a Ki (D(4) dopamine receptor) of 1.9 nM.
For NS(=O)(=O)c1ccc(N2CCN(CC[C@@H]3OCCc4ccccc43)CC2)cc1 [SONEPIPRAZOLE], the minimal effective dose (Rodentia sp. [11]) was 30 mg/kg, the Ki (D(4) dopamine receptor) was 6.8 nM and the NE (Rodentia sp. [12]) was “inactive”. The NE (Rodentia sp. [13]) was “inactive”, the NE (Rodentia sp. [14]) was “inactive” and the NE (Rodentia sp. [15]) was “inactive”. The NE (Rodentia sp. [16]) was “inactive”.
With Fc1ccc(OC[C@@H]2CC[C@H]3CN(c4ncc(F)cn4)CCN3C2)cc1 the NE (Rodentia sp. [17]) was “inactive”, the NE (Rodentia sp. [18]) was “inactive” and the NE (Rodentia sp. [19]) was “inactive”. For the same compound, the minimal effective dose (Rodentia sp. [11]) was 18 mg/kg and the ED50 (Rodentia sp. [20]) was 13 mg/kg.
With O=S1(=O)c2cccc3cccc(c23)N1CCCN1CCN(c2ccc(F)cc2)CC1 [FANANSERIN] the ED50 (Rattus norvegicus [21]) was 0.99 mg/kg, the ED50 (Rattus norvegicus [22]) was 2.4 mg/kg and the Ki (D(4) dopamine receptor) was 2.9 nM.
For O=C1Cc2cc(CCN3CCN(c4nsc5ccccc45)CC3)c(Cl)cc2N1 [ZIPRASIDONE], the Ki [23] was 37 nM, the Ki [24] was greater than 10000 nM and the Ki [25] was 1.9 nM.
For OC(c1ccc(F)cc1)C1CCN(CCCCc2ccccc2)CC1 (configuration not stated), the Ki [1] was 126 nM.
In the case of O=c1ccc2ccc(NCCNc3ccccc3)cc2o1, the Ki (D(4) dopamine receptor) is reported as 5.8 nM.
Compound Cc1c(C2CCN(CCc3ccccc3)CC2)noc1-c1ccc(Cl)cc1 has a half-life [4] of 2 h and a bioavailability [5] of 38%.
With c1ccc2c(c1)CC(CN1CCN(c3ccc4c(c3)OCCO4)CC1)C2 the NE (Rodentia sp. [26]) was “inactive”, the NE (Rodentia sp. [27]) was “inactive” and the ED50 (Rodentia sp. [28]) was 80 mg/kg. The ED50 (Rodentia sp. [29]) was 66 mg/kg, the ED50 (Rodentia sp. [30]) was 40 mg/kg and the ED50 (Rodentia sp. [31]) was 9 mg/kg.
Work on Clc1ccccc1CCN1CCN(c2[nH]nc3c2CCc2ccccc2-3)CC1 yielded a half-life [4] of 1 h, a bioavailability [5] of 31% and an inhibition at 10 µM [32] of 58%. It also gave an inhibition [33] of 33% and a Ki (D(4) dopamine receptor) of 4.3 nM.
